The values below come from US11679111B2, “Fatty acid synthase inhibitors” (priority 2016, dated 2023).

SMILES strings stand for the structures.

Assay [1] relates to HIV-1. Type of assay: cell-based. The following applies: supernatants on fresh TZM-bl indicator cells. As to the method:
(A) TZM-bl cells were transfected with pNL4-3 provirus plasmid for 48 h in the presence or absence of 10 μM Fasnall or C75 or DMSO (0.01%). Intracellular expression of HIV-1 proteins was monitored by HIVIG-western blot, and β-actin was used as loading control. (B) Supernatant associated virion production was monitored using a p24 ELISA. (C) 48 hours post-transfection, cell culture supernatants were removed and incubated with fresh TZM-bl (indicator) cells for an additional 48 hrs. Values expressed as the mean±standard deviation, and are representative of three independent experiments. p-values were generated with student's t-test. Molecular weight markers (kD) indicated in right margin.
To test further the hypothesis that HIV-1 replication requires FASN activity during the late stages of viral replication, TZM-bl or SupT1 (data not shown) cells were transfected with a HIV-1 provirus (pNL43) in the presence or absence of Fasnall or C75. […] Thus, FASN inhibition reduces nascent HIV-1 virion production without reducing HIV-1 protein synthesis.

In assay [2] the test system is BT474 cells. Nature of the assay: Caspase 3/7 activity assay. Type of assay: cell-based. Here is the method:
(§1) The assay was performed using a similar protocol to the one described by Fritz et al (Fritz et al., 2001). Cells were seeded at a density of 10,000 cells/well and treated with different concentrations of HS-106 or C75. After 24 hours, to each well, 50 μl of Caspase assay/lysis buffer (50 mM HEPES pH 7.5, 100 mM KCl, 5 mM EDTA, 10 mM MgC12, 10 mM CHAPS, 20% Sucrose, 10 mM DTT, 10 μM of (Z-DEVD)2-Rh110 (Santa Cruz Biotech) and complete protease inhibitor (Roche))was added. After 6 hours of incubation at 37° C., fluorescence was measured at Ex/Em: 485/535 nm.

Assay [3] deals with SKBR3 cells. Nature of the assay: Caspase 3/7 activity assay. Type of assay: cell-based. As to conditions: SKBR3, 24 hours. Here is the method: as §1
In assay [4] the test system is MMTV-Neu model of HER2+ breast cancer. Nature of the assay: Efficacy in MMTV-Neu model of HER2+ breast cancer. The format is in vivo, mice. As to conditions: HS-106 30 pmol/kg BIW, Carboplatin 143 pmol/kg weekly, 21 days.
In assay [5] the test system is FASN activity in HepG2 cells. Nature of the assay: [3H] glucose and acetate incorporation into lipids in HepG2 cells. Type of assay: cell-based. As to conditions: FIG. 2D, cell line not stated. As to the method: To specifically identify inhibitors of FASN targeting its nucleotide binding pockets Cibacron blue Sepharose was utilized. This medium has been used previously to purify NAD and NADP binding proteins from crude tissues extracts (Miyaguchi et al., 2011; Muratsubaki et al., 1994). FASN enriched extract from lactating pig mammary gland was bound to the resin and labeled with cysteine reactive fluorescein. […] Next, the molecules were tested for their ability to inhibit FASN activity in a HepG2 cell based assay that measured the incorporation of ^3H glucose into lipids (FIG. 1B and FIG. 9).
Incorporation of radiolabeled glucose or acetate in total lipids was measured according to published methods (Haystead and Hardie, 1986). HepG2 cells (80% confluent in 12 wells plates) were starved overnight in MEM Alpha, the medium was then changed with DMEM medium containing 0.1 g/L glucose 10% FBS and 5 μM insulin and 1 μCi 3-[^3H] D-glucose or 1 μCi [^3H]-acetate in addition to different concentrations of each compound. After incubation for 1 hour at 37° C., 5% CO2, the cells were washed with ice cold PBS and detached by treating with 100 μl trypsin for 10 min then 1 ml of ice cold PBS was added. The cells suspension was then sonicated for 3 times in 30 seconds intervals and kept on ice. From each well 1 ml of cell lysate was added to a 4 ml scintillation vial and 2 ml of MicroScint-E was added. The vials were mixed thoroughly then centrifuged for 30 min at 3000 rpm and the ^3H radioactivity was measured by liquid scintillation counting.

For `C=C1C(=O)OC(CCCCCCCC)C1C(=O)O` (centres unmarked) [C75, reference compound], the “number of infectious HIV-1 particles” value in assay [1] was “similarly reduced the number of infectious HIV-1 particles”. The “caspase activity relative to MCF10A cells” value is listed as 10 fold in assay [2] (BT474, 24 hours) and 2 fold in assay [3].
Take `N.N.O=C([O-])C1(C(=O)[O-])CCC1.[Pt+2]` [Carboplatin, reference compound]: the “tumors with objective response of stable disease or better” value in assay [4] is 25%.
Take `CCCCCCC(=O)CCCCCC/C=C/C[C@@H](O)[C@H](O)[C@@](N)(CO)C(=O)O` [Myriocin]: the “rescue from Fasnall induced apoptosis by ceramide synthesis inhibitor” value in assay [2] (BT474, 10 μM pretreatment, 24 hours) is “modestly rescue the cells”.
As to `Cc1sc2ncnc(N[C@H]3CCN(Cc4ccccc4)C3)c2c1C` [HS-80, (S)—N-(1-benzylpyrrolidin-3-yl)-5,6-dimethylthieno[2,3-d]pyrimidin-4-amine], the “inhibition of tritiated acetate incorporation into lipids” value in assay [5] is recorded as “inhibit the incorporation of tritiated acetate into lipids”.
Same read-out and setting: with `Cc1sc2ncnc(N[C@@H]3CCN(Cc4ccccc4)C3)c2c1C` [HS-79, (R)—N-(1-benzylpyrrolidin-3-yl)-5,6-dimethylthieno[2,3-d]pyrimidin-4-amine] the entry was “inhibit the incorporation of tritiated acetate into lipids”.
As to `CCCCCCCCCCCCCCOc1ccc(C(=O)O)o1` [TOFA], the “reversal of HS-106 induced caspase 3/7 activity by pretreatment” value in assay [2] (BT474, 15 μM TOFA pretreatment) was “completely reverse the effect of HS-106”.
